From paper PMC6155302, “Anti-Cancer Activity of Resveratrol and Derivatives Produced by Grapevine Cell Suspensions in a 14 L Stirred Bioreactor” (Molecules : A Journal of Synthetic Chemistry and Natural …, 2017)
Like-named read-outs stand apart in the source and are kept apart here.

Key:
SKMEL-28 cells = assay: MTT cell viability assay, SKMEL-28 melanoma cells; type: cell-based, human; conditions: for Cell viability inhibition, SKMEL-28 (result in words): 10–100 μM, 6, 24 and 48 h; for IC50: Homo sapiens, SK-MEL-28, 24 h
Method: (§1) Three cell types were studied. The HT-144 and SKMEL-28 cell lines derived from human melanoma and were obtained from the American Tissue Culture Collection (ATCC). They were grown in Mc Coy’s 5a modified and minimal essential medium (MEM) respectively, supplemented with 10% (v/v) fetal bovine serum (FBS) and 1% (v/v) antibiotic (penicillin, streptomycin) at 37 °C in a humidified atmosphere of 5% CO2. Human dermal fibroblasts (HDF) were isolated from skin biopsies of healthy subjects. Briefly, the hypodermis was mechanically removed and explants were cut in 1 mm^2 pieces. Skin fragments were then cultivated in Dulbecco’s minimal essential medium (DMEM) supplemented with 20% FBS, 1% antibiotic and 1% fungizone at 37 °C in a humidified atmosphere of 5% CO2. The medium was changed every two days. After 4 weeks of cultures, fibroblasts have covered all the surface of the culture dishes and were trypsined. Cells were grown in DMEM containing 10% FBS and 1% antibiotic at 37 °C in a humidified atmosphere of 5% CO2. Subcultures 3 to 9 were used in this study.
(§2) The three cell types were seeded into 96-well plates (0.32 cm^2, 5500 cells in 200 μL medium par well). After 24 h of culture, the cells were treated in triplicate wells with different bio-produced stilbenes and synthetic resveratrol (≥99%, Sigma-Aldrich, Saint-Quentin Fallavier, France) amounts and treatment times. Compounds were dissolved in ethanol at a 5 × 10^−2 M final concentration and stored at −20 °C. Compounds were diluted in culture media, with or without FBS, to the desired final concentration. All control and treated cells received a maximal volume of 0.1% (v/v) of ethanol.
(§3) Cell viability was tested by the MTT [3-(4,5-dimethyl thiazol-2yl)-2,5-diphenyltetrazolium bromide] assay (Sigma-Aldrich). After MTT addition (0.5 mg/mL), the plates were incubated for 3 h at 37 °C in a humidified atmosphere of 5% CO2. At the end of the incubation period, the medium was removed and the converted dye was solubilized with dimethyl sulfoxide (DMSO). Absorbance of the converted dye was measured at a wavelength of 560 nm using a plate reader Tecan F200 Pro (Tecan, Lyon, France). The 50% inhibitory concentration (IC50) for each bio-produced stilbene was defined as the concentration producing 50% decrease in cell growth.

HDF cells = assay: MTT cell viability assay, healthy human dermal fibroblasts; type: cell-based; conditions: for Cell viability inhibition, HDF (result in words): 10–100 μM, 6, 24 and 48 h; for IC50: Homo sapiens, HDF, 24 h
Method: as §1, §2, §3

HT-144 cells = assay: MTT cell viability assay, HT-144 melanoma cells; type: cell-based, human; conditions: for Cell viability inhibition, HT-144 (result in words): 10–100 μM, 6, 24 and 48 h; for IC50: Homo sapiens, HT-144, 24 h
Method: as §1, §2, §3

[1] = with FBS (10% FBS), read-out: IC50 SKMEL-28 with FBS
[2] = without FBS (0% FBS), read-out: IC50 SKMEL-28 without FBS
[3] = with FBS (10% FBS), read-out: IC50 HDF with FBS
[4] = without FBS (0% FBS), read-out: IC50 HDF without FBS
[5] = with FBS (10% FBS), read-out: IC50 HT-144 with FBS
[6] = without FBS (0% FBS), read-out: IC50 HT-144 without FBS

| IC50 (SKMEL-28 cells; [1]) [µM] | IC50 (SKMEL-28 cells; [2]) [µM] | IC50 (HT-144 cells; [5]) [µM] | IC50 (HT-144 cells; [6]) [µM] | SMILES | Cell viability inhibition, SKMEL-28 (result in words) (SKMEL-28 cells) | Cell viability inhibition, HDF (result in words) (HDF cells) | Cell viability inhibition, HT-144 (result in words) (HT-144 cells) | IC50 (HDF cells; [3]) [µM] | IC50 (HDF cells; [4]) [µM] |
| --- | --- | --- | --- | --- | --- | --- | --- | --- | --- |
| – | – | – | – | Oc1ccc(/C=C/c2cc(O)cc(O)c2)cc1 [synthetic resveratrol, trans-resveratrol, reference compound] | dose-dependent decrease in cell growth | dose-dependent decrease in cell growth | dose-dependent decrease in cell growth | – | – |
| > 100 | 23 ± 0.3 | > 100 | 24.9 ± 0.62 | Oc1ccc(C(O)C(Oc2ccc(C=Cc3cc(O)cc(O)c3)cc2)c2cc(O)cc(O)c2)cc1 (stereo not drawn) [Dimer (6)] | significant cell viability inhibition | significant cell viability inhibition | significant cell viability inhibition | > 100 | 22.2 ± 2.61 |
| 86.6 ± 2.59 | 15.9 ± 0.44 | 82.3 ± 3.23 | 17.58 ± 0.09 | Oc1ccc(/C=C/c2cc(O)cc3c2[C@@H](c2cc(O)cc(O)c2)[C@H](c2ccc(O)cc2)O3)cc1 [ɛ-viniferin, ε-viniferin] | significant cell viability inhibition | significant cell viability inhibition | significant cell viability inhibition | 91.9 ± 11.3 | 16.4 ± 1.19 |
| > 100 | > 100 | > 100 | > 100 | Oc1ccc([C@@H]2c3c(O)cc(O)cc3[C@H]3[C@H](c4ccc(O)cc4)c4c(O)cc(O)cc4[C@@H]23)cc1 [Pallidol, pallidol] | – | – | – | > 100 | > 100 |
| > 100 | > 100 | 93.3 ± 7.6 | > 100 | Oc1ccc(/C=C/c2cc(O)cc(O)c2)cc1 [Trans-resveratrol, trans-resveratrol] | – | – | – | > 100 | > 100 |
